Assay results as given in ChEMBL document CHEMBL1201862, “PubChem BioAssay data set” (2004).
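96-well plates; 48 h exposure; 5 concentrations. Endpoints by linear interpolation between flanking doses. Not reached: highest tested concentration assigned. GI50 marks 50% less growth.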 Calls of active or inactive are those of the source. Rule as the data show it: active = GI50 up to about 1.1 µM and inactive = higher.

Columns and labels:
Assay in all cases: NCI anticancer screen, dose series, 48 h
[1] = test system: NCI-H23
[2] = test system: K562
[3] = test system: 786-0
[4] = test system: UACC-257
[5] = test system: CAKI-1
[6] = test system: MOLT-4
[7] = test system: SF-539
[8] = test system: PC-3
[9] = test system: SK-MEL-5
[10] = test system: HOP-62
[11] = test system: TK-10
[12] = test system: HCT-15
[13] = test system: HOP-92
[14] = test system: LOX IMVI
[15] = test system: UO-31
[16] = test system: SK-MEL-2
[17] = test system: ACHN
[18] = test system: KM12
[19] = test system: SK-MEL-28
[20] = test system: OVCAR-5

Structure (SMILES)	GI50 [1]	GI50 [2]	GI50 [3]	GI50 [4]	GI50 [5]	GI50 [6]	GI50 [7]	GI50 [8]	GI50 [9]	GI50 [10]	GI50 [11]	GI50 [12] [µM]	GI50 [13]	GI50 [14]	GI50 [15]	GI50 [16]	GI50 [17]	GI50 [18]	GI50 [19]	GI50 [20]
O=C(Nc1ccc2ncccc2c1)c1cc2c(cc1Cl)Sc1nccn1S2(=O)=O	15.6 µM (inactive)	6.31 µM (inactive)	13.6 µM (inactive)	20.1 µM (inactive)	22 µM (inactive)	18.4 µM (inactive)	20 µM (inactive)	33.6 µM (inactive)	15.3 µM (inactive)	16.4 µM (inactive)	20.4 µM (inactive)	11	27.7 µM (inactive)	12.9 µM (inactive)	18.2 µM (inactive)	17.3 µM (inactive)	31.2 µM (inactive)	6.4 µM (inactive)	18.4 µM (inactive)	20.9 µM (inactive)
Oc1[nH]c(Nc2cccc(CC(F)(F)F)c2)nc2ncnc1-2	> 100 µM (inactive)	–	> 100 µM (inactive)	> 100 µM (inactive)	> 100 µM (inactive)	–	> 100 µM (inactive)	> 100 µM (inactive)	> 100 µM (inactive)	> 100 µM (inactive)	> 100 µM (inactive)	> 100	> 100 µM (inactive)	> 100 µM (inactive)	> 100 µM (inactive)	> 100 µM (inactive)	> 100 µM (inactive)	> 100 µM (inactive)	> 100 µM (inactive)	> 100 µM (inactive)
CC(=O)/C=c1\[nH]/c(=C\C=C\c2ccccc2)c(=O)n1/C=C1\C(=O)Oc2ccccc2C1=O	> 100 µM (inactive)	> 100 µM (inactive)	> 100 µM (inactive)	> 100 µM (inactive)	> 100 µM (inactive)	> 100 µM (inactive)	> 100 µM (inactive)	> 100 µM (inactive)	> 100 µM (inactive)	–	> 100 µM (inactive)	> 100	> 100 µM (inactive)	> 100 µM (inactive)	> 100 µM (inactive)	> 100 µM (inactive)	> 100 µM (inactive)	> 100 µM (inactive)	> 100 µM (inactive)	> 100 µM (inactive)
Cc1ccc2c(c1C)CC1(Cc3ccc(C)c(C)c3C1=O)C2=O (stereo not given)	–	> 100 µM (inactive)	39.4 µM (inactive)	> 100 µM (inactive)	44.2 µM (inactive)	> 100 µM (inactive)	28.6 µM (inactive)	> 100 µM (inactive)	76.9 µM (inactive)	–	29.7 µM (inactive)	> 100	34 µM (inactive)	> 100 µM (inactive)	> 100 µM (inactive)	> 100 µM (inactive)	46 µM (inactive)	> 100 µM (inactive)	> 100 µM (inactive)	> 100 µM (inactive)
COc1ccc(/C=C(\C#N)c2nc3ccccc3c(=O)[nH]2)cc1	–	> 100 µM (inactive)	13.9 µM (inactive)	68.7 µM (inactive)	27.8 µM (inactive)	> 100 µM (inactive)	12.6 µM (inactive)	38.7 µM (inactive)	19.5 µM (inactive)	10.5 µM (inactive)	23.3 µM (inactive)	54.5	12.1 µM (inactive)	43.4 µM (inactive)	26.5 µM (inactive)	27.3 µM (inactive)	17.1 µM (inactive)	51.5 µM (inactive)	> 100 µM (inactive)	> 100 µM (inactive)
Cn1c([C@H](C#N)c2ncccc2[N+](=O)[O-])nc2ccccc21	59 µM (inactive)	> 100 µM (inactive)	31.8 µM (inactive)	> 100 µM (inactive)	> 100 µM (inactive)	> 100 µM (inactive)	31.1 µM (inactive)	86.1 µM (inactive)	–	24.5 µM (inactive)	> 100 µM (inactive)	> 100	89.1 µM (inactive)	> 100 µM (inactive)	> 100 µM (inactive)	40.6 µM (inactive)	> 100 µM (inactive)	> 100 µM (inactive)	> 100 µM (inactive)	> 100 µM (inactive)
O=C1C(C(O)(C(F)(F)Cl)C(F)(F)Cl)CCC1C(O)(C(F)(F)Cl)C(F)(F)Cl (stereo not given)	2.8 µM (inactive)	> 10 µM (inactive)	> 10 µM (inactive)	2.79 µM (inactive)	3.4 µM (inactive)	5.55 µM (inactive)	2.74 µM (inactive)	4.53 µM (inactive)	5.94 µM (inactive)	5.57 µM (inactive)	5.52 µM (inactive)	3.91	2.09 µM (inactive)	3.94 µM (inactive)	–	2.3 µM (inactive)	3.81 µM (inactive)	4.45 µM (inactive)	3.42 µM (inactive)	5.43 µM (inactive)
O=CN1CCN(C(=O)c2cc(Cl)cc(Cl)c2)C1=S	17.2 µM (inactive)	14.8 µM (inactive)	4.71 µM (inactive)	17.4 µM (inactive)	13.3 µM (inactive)	15 µM (inactive)	20.2 µM (inactive)	16.6 µM (inactive)	–	15.2 µM (inactive)	15.3 µM (inactive)	17	17.9 µM (inactive)	7.13 µM (inactive)	–	16.9 µM (inactive)	16.9 µM (inactive)	14.4 µM (inactive)	18.4 µM (inactive)	21.9 µM (inactive)
ON=C1CCCCC(=NO)CCCC1	> 100 µM (inactive)	> 100 µM (inactive)	> 100 µM (inactive)	> 100 µM (inactive)	> 100 µM (inactive)	–	> 100 µM (inactive)	> 100 µM (inactive)	> 100 µM (inactive)	–	> 100 µM (inactive)	> 100	> 100 µM (inactive)	> 100 µM (inactive)	> 100 µM (inactive)	> 100 µM (inactive)	> 100 µM (inactive)	> 100 µM (inactive)	> 100 µM (inactive)	–
O=C1Nc2ccc(Br)cc2/C1=N/c1ccc(Cl)cc1	30.2 µM (inactive)	0.586 µM (active)	26.3 µM (inactive)	18.1 µM (inactive)	7.1 µM (inactive)	25.6 µM (inactive)	3.58 µM (inactive)	25.3 µM (inactive)	4.15 µM (inactive)	21.7 µM (inactive)	21.8 µM (inactive)	11.1	37.3 µM (inactive)	0.521 µM (active)	13.5 µM (inactive)	–	13.4 µM (inactive)	4.55 µM (inactive)	23.3 µM (inactive)	18.2 µM (inactive)
C[C@]12CCC(=O)C=C1CC[C@@H]1[C@@H]2CC[C@]2(C)C(=O)[C@H](n3ccnc3)C[C@@H]12	> 100 µM (inactive)	75.3 µM (inactive)	> 100 µM (inactive)	> 100 µM (inactive)	> 100 µM (inactive)	35.2 µM (inactive)	> 100 µM (inactive)	> 100 µM (inactive)	63.1 µM (inactive)	–	> 100 µM (inactive)	> 100	> 100 µM (inactive)	> 100 µM (inactive)	> 100 µM (inactive)	> 100 µM (inactive)	> 100 µM (inactive)	> 100 µM (inactive)	> 100 µM (inactive)	> 100 µM (inactive)
CC(=O)N1N=C(c2ccc3ccccc3c2O)CC1c1ccc(N(C)C)cc1 (stereo not given)	> 100 µM (inactive)	> 100 µM (inactive)	> 100 µM (inactive)	> 100 µM (inactive)	> 100 µM (inactive)	> 100 µM (inactive)	> 100 µM (inactive)	> 100 µM (inactive)	> 100 µM (inactive)	> 100 µM (inactive)	> 100 µM (inactive)	> 100	> 100 µM (inactive)	–	> 100 µM (inactive)	> 100 µM (inactive)	> 100 µM (inactive)	> 100 µM (inactive)	> 100 µM (inactive)	> 100 µM (inactive)
CC#CC#C/C=C1/C=CC2(CCCCO2)O1 (stereo not given)	> 100 µM (inactive)	40.2 µM (inactive)	> 100 µM (inactive)	> 100 µM (inactive)	> 100 µM (inactive)	33.5 µM (inactive)	> 100 µM (inactive)	> 100 µM (inactive)	> 100 µM (inactive)	–	> 100 µM (inactive)	56.8	> 100 µM (inactive)	90.2 µM (inactive)	42.9 µM (inactive)	> 100 µM (inactive)	–	> 100 µM (inactive)	> 100 µM (inactive)	> 100 µM (inactive)
Cc1cn(CCCCOC(=O)NC(CCCNC(=N)N)C(=O)O)c(=O)[nH]c1=O (stereo not given)	> 100 µM (inactive)	> 100 µM (inactive)	> 100 µM (inactive)	> 100 µM (inactive)	> 100 µM (inactive)	> 100 µM (inactive)	> 100 µM (inactive)	> 100 µM (inactive)	–	> 100 µM (inactive)	> 100 µM (inactive)	> 100	> 100 µM (inactive)	> 100 µM (inactive)	> 100 µM (inactive)	> 100 µM (inactive)	> 100 µM (inactive)	> 100 µM (inactive)	> 100 µM (inactive)	> 100 µM (inactive)
CC(Oc1ccc(Cl)cc1Cl)C(=O)NN1C(=O)CC(=O)NC1=S (stereo not given)	> 100 µM (inactive)	> 100 µM (inactive)	> 100 µM (inactive)	> 100 µM (inactive)	82 µM (inactive)	–	> 100 µM (inactive)	> 100 µM (inactive)	> 100 µM (inactive)	> 100 µM (inactive)	> 100 µM (inactive)	86.9	39.6 µM (inactive)	80 µM (inactive)	> 100 µM (inactive)	80.5 µM (inactive)	88.1 µM (inactive)	> 100 µM (inactive)	> 100 µM (inactive)	> 100 µM (inactive)
